From patent publication US20200407717A1, “METHODS OF MODULATING ANTISENSE ACTIVITY” (Ionis Pharmaceuticals, Inc., priority 2018, published 2020)
In the oligonucleotide strings, read from the 5' end, every base follows the letter of its sugar. An asterisk marks phosphorothioate; unmarked linkages are phosphodiester. Other units and linkages are bracketed, terminal groups are in braces. A string of capitals states the bases alone. e = 2'-O-(2-methoxyethyl) (MOE); {AF594} = Alexa Fluor 594 dye; k = constrained ethyl (cEt); {FITC} = fluorescein label; [5mC] = 5-methylcytosine; d = 2'-deoxy (DNA)

Key:
EGFR [1] = molecular target: T1, EGFR (Homo sapiens, UniProt P00533); test: Direct NanoBRET binding assay; design: made in house; host or cells: HEK293 cells; conditions: Direct BRET, AF594-labeled oligonucleotide 0.1-10,000 nM
Protocol: (§1) NanoBRET (bioluminescence resonance energy transfer) binding assays were performed as described in Vickers and Crooke. PLOS One, 11(8), (2016). An EGFR NLuc construct was prepared by first amplifying human EGFR from the full length cDNA clone (Origene RC217223) with forward PCR primer 5′-[…]-3′ (SEQ ID NO: 1) and reverse PCR primer 5′-[…] (SEQ ID NO: 2). The amplified product was ligated into the NheI and XhoI sites of the NanoLuc expression vector pFC32K Nluc CMV-Neo (Promega). Protein was expressed in HEK293 cells and isolated using Protein G magnetic beads. For competitive BRET, the Alexafluor594-labeled modified oligonucleotide 766636 was diluted into water in opaque white 96-well plates at 10 nM and competed with 0.1-10,000 nM of unlabeled modified oligonucleotide. […] of 2× binding buffer containing […] (relative luminescence units) beads/well was added and plates were shaken for 10 minutes at room temperature. Nanoluciferase activity and BRET were measured in a Glowmax Discover plate reader and EC50 values, shown in the tables below, were calculated using GraphPad Prism. For direct BRET, Alexafluor594 modified nucleotides were diluted at 0.1-10,000 nM and experiments were performed as described above.

EGF-EGFR signaling = test: EGFR signaling western blot (p-EGFR, p-ERK), A431 cells; format: cell-based; conditions: for EGFR signaling: 2 μM for 16 hours
Protocol: In order to test the effects of a PS-ASO on EGFR signaling, A431 cells were incubated with compound no. 116847 or no PS-ASO compound for 16 hours. All cells were then treated with EGF prior to being subjected to the pulse-chase protocol described above. Cell lysates were run on a SDS-PAGE gel and analyzed by sequential western blot for phosphorylated EGFR (P-EGFR), total EGFR (T-EGFR), phosphorylated ERK (P-ERK), and total ERK (T-ERK) using the antibodies described above for EGFR, 4370 for P-ERK (Cell Signaling Technology), and 4695 for T-ERK (Cell Signaling Technology).
110080, 25690, 25699, 395251, or 395254 at 2 μM for 16 hours prior to carrying out the pulse-chase experiment described above.

EGFR [2] = molecular target: T1, EGFR; test: Pull-down assay in the presence of EGF; format: binding; design: endogenous in cells; host or cells: A431 cells
Protocol: A431 cells were treated with 100 ng/mL, 200 ng/mL, or 400 ng/mL EGF and then lysed. The cell lysates were mixed with beads bound to compound no. 451104, as prepared as in Example 1. Proteins were eluted with compound no. 116847 and run on a SDS-PAGE followed by western blot, as in Example 1. The same membrane was sequentially blotted for total EGFR (T-EGFR), phosphorylated EGFR (P-EGFR, ab205827, Abcam), nucleolin (ab22758, Abcam), and TCP1β. […] 451104 to EGFR.
In a similar experiment in which EGF was added after cell lysis, A431 cells were lysed and mixed with beads bound to compound no. 451104. Varying concentrations of EGF were added during the elution step with compound no. 116847.

EGFR [3] = molecular target: T1, EGFR; test: Competitive NanoBRET binding assay; design: made in house; host or cells: HEK293 cells; conditions: Competitive BRET vs 10 nM AF594-labeled 766636
Protocol: as §1

EGFR [4] = test: Pulse-chase EGFR synthesis and degradation, A431 cells; format: cell-based
Protocol: In order to test the effects of a PS-ASO on EGFR synthesis and degradation, A431 cells were incubated with either compound no. 116847 or no PS-ASO compound for 16 hours. A pulse-chase protocol was then performed in which the cells were incubated for 20 minutes in cysteine and methionine free media followed by incubation with [^35S]-Met and [^35S]-Cys in order to analyze newly synthesized protein. Cell samples were collected in RIPA buffer after 50 minutes (FIG. 6A) or at the times indicated in the tables below, and cell lysates were immunoprecipitated with EGFR antibody or s100a10 antibody (610071, BD Bioscience). The resulting, labeled immunocomplexes were resolved by SDS-PAGE and visualized by autoradiography using phosphoimager. FIG. 6A and Table 13 show the levels of nascent EGFR protein and nascent s100a10, a control protein. […] 116847 relative to cells that were not incubated with an ASO.

EGFR [5] = molecular target: T1, EGFR; test: Competitive BRET in absence or presence of exogenous EGF; format: binding; design: made in house; host or cells: HEK293 cells
Protocol: as §1
The binding affinities for EGFR of PS-ASOs with various sugar modifications were measured with competitive BRET, as described in Example 1. 10 nM compound no. […]

Purified recombinant EGF = molecular target: T2, Purified recombinant EGF (Homo sapiens, UniProt P01133); test: Membrane binding assay, EGF; conditions: EGF 3 nM to 3 μM
T2 construct: purchased ThermoFisher PHG0311L
Protocol: (§2) A membrane binding assay was performed to test the binding affinities of modified oligonucleotides to EGF and EGFR. Purified recombinant EGF (PHG0311L, ThermoFisher) or EGFR protein (PV3872, ThermoFisher) were incubated with FITC-labeled phosphorothioate oligonucleotide, compound no. 256903 or FITC-labeled phosphate oligonucleotide, PO-ASO, in binding buffer (20 mM Tris-HCl, pH 7.5, 150 mM NaCl, 1 mM DTT, 10% glycerol) for 1 hr at 37° C. Each reaction contained purified EGF at 3 nM to 3 μM or recombinant EGFR at 5 nM to 150 nM. Samples were loaded onto a hyband ECL nitrocellulose membrane (GE Healthcare) and soaked in wash buffer (20 mM Tris-HcCl, pH 7.5, 250 mM NaCl). Protein-bound ASOs were transferred to the membrane by applying a vaccum in a 96-well Bio-Rad Bio-Dot apparatus. After washing, membranes were air-dried and scanned using a phoshoimager (GE Healthcare). Kds were calculated for compound no. 256903 using Prism. The results below represent an average of three replicate experiments. […] In contrast, compound no. 256903 bound to both EGF and EGFR, with a higher affinity for EGFR than for EGF.

EGFR [6] = molecular target: T1, EGFR; test: Membrane binding assay, EGFR; design: purchased ThermoFisher PV3872; conditions: EGFR 5 nM to 150 nM
Protocol: as §2

T2 sequence (P01133 971-1023 limits assumed): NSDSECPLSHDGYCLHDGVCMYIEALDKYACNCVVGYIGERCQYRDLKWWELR

AF594-GksGksTks^mCdsGdsAds^mCds^mCdsGdsAdsAdsGdsTds^mCksAksTk (antisense GGTCGACCGAAGTCAT; 5'-AF594 label, cEt/MOE, 5-methylC, phosphorothioate, chemistry not fully specified) [compound 1024788]
EC50 (EGFR [1]): 525 nM

AF594-GksGks^mCdsTdsAds^mCdsTdsAds^mCdsGds^mCds^mCdsGdsTks^mCksAk (antisense {AF594}-kG*kG*d[5mC]*dT*dA*d[5mC]*dT*dA*d[5mC]*dG*d[5mC]*d[5mC]*dG*kT*k[5mC]*kA) [compound 936533]
EC50 (EGFR [1]): 551 nM

AF594-Gks^mCksAksTdsGdsTdsTds^mCdsTds^mCddsAds^mCdsAdsTksTksAk (antisense {AF594}-kG*k[5mC]*kA*dT*dG*dT*dT*d[5mC]*dT*d[5mC]*dA*d[5mC]*dA*kT*kT*kA) [compound 1055615]
EC50 (EGFR [1]): 746 nM

AF594-^mCes^mCesTesTes^mCes^mCds^mCdsTdsGdsAdsAdsGdsGdsTdsTds^mCes^mCesTes^mCes^mCe (antisense {AF594}-e[5mC]*e[5mC]*eT*eT*e[5mC]*d[5mC]*d[5mC]*dT*dG*dA*dA*dG*dG*dT*dT*e[5mC]*e[5mC]*eT*e[5mC]*e[5mC]) [compound 1024789]
EC50 (EGFR [1]): 202 nM

AesGesTes^mCesTesAdsGdsGdsGdsTds^mCdsAds^mCdsAdsAdsTes^mCesTesGesGe (antisense eA*eG*eT*e[5mC]*eT*dA*dG*dG*dG*dT*d[5mC]*dA*d[5mC]*dA*dA*eT*e[5mC]*eT*eG*eG) [compound 25699]
EGFR signaling (EGF-EGFR signaling): not be impacted

Biotin-TEG-^mCesTesGes^mCesTesAdsGds^mCds^mCdsTds^mCds^ioUdsGdsGdsAdsTesTGesTesGesAe [compound 451104]
competition by exogenous EGF for binding to EGFR (EGFR [2]; A431 cells treated with 100, 200 or 400 ng/mL EGF, then lysed): did not compete
recovery of EGFR, nucleolin, or TCP1β from the beads on direct addition of EGF (EGFR [2]; EGF added to cell lysates during elution): did not significantly alter

CTGCTAGCCTCTGGATTTGA (sugars from the 5' end e5 d10 e5, all phosphorothioate, methylation of C not given here) [compound 116847, 5-10-5 2′-MOE gapmer, phosphorothioate]
EC50 (EGFR [3]; Table 5): 181 nM
EC50 (EGFR [3]; Table 6): 1660 nM
EGFR synthesis and degradation (EGFR [4]; 16 hours incubation, relative to cells not incubated with an ASO): unchanged
Relative Abundance of EGFR (%) (EGFR [4]; Time 0 hr): 103%
Relative Abundance of EGFR (%) (EGFR [4]; Time 4 hr): 91%
Relative Abundance of EGFR (%) (EGFR [4]; Time 16 hr): 69%
Relative Abundance of EGFR (%) (EGFR [4]; Time 24 hr): 54%
Bret Ratio (% Max) (EGFR [5]; 0.01 nM, EGF added 0): 15.0 % Max
Bret Ratio (% Max) (EGFR [5]; 0.01 nM, EGF added 100 ng/mL): 13.3 % Max
Bret Ratio (% Max) (EGFR [5]; 0.03 nM, EGF added 0): 15.4 % Max
Bret Ratio (% Max) (EGFR [5]; 0.03 nM, EGF added 100 ng/mL): 12.4 % Max
Bret Ratio (% Max) (EGFR [5]; 0.1 nM, EGF added 0): 16.2 % Max
Bret Ratio (% Max) (EGFR [5]; 0.1 nM, EGF added 100 ng/mL): 13.2 % Max
Bret Ratio (% Max) (EGFR [5]; 0.30 nM, EGF added 0): 19.6 % Max
Bret Ratio (% Max) (EGFR [5]; 0.30 nM, EGF added 100 ng/mL): 15.1 % Max
Bret Ratio (% Max) (EGFR [5]; 1.0 nM, EGF added 0): 26.1 % Max
Bret Ratio (% Max) (EGFR [5]; 1.0 nM, EGF added 100 ng/mL): 18.0 % Max
Bret Ratio (% Max) (EGFR [5]; 3.0 nM, EGF added 0): 32.6 % Max
Bret Ratio (% Max) (EGFR [5]; 3.0 nM, EGF added 100 ng/mL): 24.2 % Max
Bret Ratio (% Max) (EGFR [5]; 10.0 nM, EGF added 0): 41.8 % Max
Bret Ratio (% Max) (EGFR [5]; 10.0 nM, EGF added 100 ng/mL): 30.7 % Max
Bret Ratio (% Max) (EGFR [5]; 30.0 nM, EGF added 0): 52.8 % Max
Bret Ratio (% Max) (EGFR [5]; 30.0 nM, EGF added 100 ng/mL): 39.7 % Max
Bret Ratio (% Max) (EGFR [5]; 100 nM, EGF added 0): 64.1 % Max
Bret Ratio (% Max) (EGFR [5]; 100 nM, EGF added 100 ng/mL): 54.7 % Max
Bret Ratio (% Max) (EGFR [5]; 300 nM, EGF added 0): 70.8 % Max
Bret Ratio (% Max) (EGFR [5]; 300 nM, EGF added 100 ng/mL): 63.8 % Max
Bret Ratio (% Max) (EGFR [5]; 1000 nM, EGF added 0): 82.9 % Max
Bret Ratio (% Max) (EGFR [5]; 1000 nM, EGF added 100 ng/mL): 77.4 % Max
Bret Ratio (% Max) (EGFR [5]; 3000 nM, EGF added 0): 99.5 % Max
Bret Ratio (% Max) (EGFR [5]; 3000 nM, EGF added 100 ng/mL): 94.2 % Max
EGF-EGFR signaling (EGF-EGFR signaling; 16 hours incubation, then EGF): not affected
p-EGFR (%) (EGF-EGFR signaling; Time 0.5 hr): 89%
p-ERK (%) (EGF-EGFR signaling; Time 0.5 hr): 102%
p-EGFR (%) (EGF-EGFR signaling; Time 1 hr): 76%
p-ERK (%) (EGF-EGFR signaling; Time 1 hr): 94%
p-EGFR (%) (EGF-EGFR signaling; Time 2 hr): 85%
p-ERK (%) (EGF-EGFR signaling; Time 2 hr): 85%
p-EGFR (%) (EGF-EGFR signaling; Time 4 hr): 55%
p-ERK (%) (EGF-EGFR signaling; Time 4 hr): 87%

FITC-^mCeoTeoGeo^mCeoTeoAdoGdo^mCds^mCdoTdo^mCdoTdoGdoGdoAdoTeoTeoTeoGeoAe (antisense {FITC}-e[5mC]eTeGe[5mC]eTdAdGd[5mC]*d[5mC]dTd[5mC]dTdGdGdAeTeTeTeGeA) [PO-ASO, FITC-labeled phosphate oligonucleotide]
interaction with EGF (Purified recombinant EGF): did not appreciably interact
interaction with EGFR (EGFR [6]): did not appreciably interact

^mCesGesTes^mCesGesTds^mCdsGdsTds^mCdsAdsTds^mCds^mCdsTds^mCesGesTes^mCes^mCe (antisense e[5mC]*eG*eT*e[5mC]*eG*dT*d[5mC]*dG*dT*d[5mC]*dA*dT*d[5mC]*d[5mC]*dT*e[5mC]*eG*eT*e[5mC]*e[5mC]) [compound 110080]
EGFR signaling (EGF-EGFR signaling): not be impacted

^mCes^mCesAesGesGes^mCdsTdsGdsGdsTdsTdsAdsTdsGdsAds^mCesTes^mCesAesGe (antisense e[5mC]*e[5mC]*eA*eG*eG*d[5mC]*dT*dG*dG*dT*dT*dA*dT*dG*dA*e[5mC]*eT*e[5mC]*eA*eG) [compound 395251]
EGFR signaling (EGF-EGFR signaling): not be impacted
